Source: article PMC11340618 (iScience, 2024)
In brackets after ≈: the same amount, converted by molar mass. Several values for one entry are separate records, joined by “and”; a condition that tells them apart may be missing. Equal values may be shown once. Read-outs that look alike come from different tables or passages of the source.

Tests used:
[1] = tested on: intracellular M. tuberculosis H37Rv (WT); assay: microbe, parasite or virus in culture; assay type: cell-based; details: Mycobacterium tuberculosis, 72 h
[2] = tested on: intracellular M. tuberculosis ΔptpA; assay type: cell-based, Mycobacterium tuberculosis
GSK3β = biological target: T1, GSK3β (Homo sapiens, UniProt P49841); assay: in vitro inhibition of GSK3β, ADP-Glo Kinase assay (SignalChem); assay type: biochemical; details: normalized to negative control
T1 construct: purchased SignalChem (Richmond, BC, Canada), contract assay service
T1 sequence (P49841 whole entry): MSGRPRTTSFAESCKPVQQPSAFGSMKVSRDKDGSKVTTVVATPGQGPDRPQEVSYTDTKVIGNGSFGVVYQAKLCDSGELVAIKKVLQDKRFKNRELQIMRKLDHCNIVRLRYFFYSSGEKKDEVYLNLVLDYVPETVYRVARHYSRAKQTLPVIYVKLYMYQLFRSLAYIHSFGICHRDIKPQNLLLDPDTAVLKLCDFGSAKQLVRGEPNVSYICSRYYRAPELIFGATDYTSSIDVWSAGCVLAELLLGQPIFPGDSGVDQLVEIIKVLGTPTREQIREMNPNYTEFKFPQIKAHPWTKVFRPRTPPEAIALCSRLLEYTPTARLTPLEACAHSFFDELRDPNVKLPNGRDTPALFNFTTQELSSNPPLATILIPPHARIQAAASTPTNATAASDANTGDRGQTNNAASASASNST
Method: Samples of three GSK3 inhibitors (P-4423632, P-0717632, P-3817632) were sent to SignalChem (Richmond, BC, Canada) where a compound selectivity assay was performed and the IC50 values of the inhibitors were determined.
Figure S3: in vitro inhibition of GSK3β by selected inhibitors, related to Star Methods: Determination of IC50 of GSK3 inhibitors. GSK3β activity was measured using the ADP-GloTM Kinase assay and normalized to the negative control (100% kinase activity). Curve was fit using non-linear regression analysis calculated with GraphPad Prism software.
(also on this page, place not known: % Inhibition GSK3β % Inhibition GSK3β % Inhibition GSK3β IC50)

[3] = tested on: Mycobacterium tuberculosis H37Rv in THP-1; assay: Minimal inhibitory concentrations of P-4423632 against Mtb H37Rv in THP-1 (Table S3); assay type: cell-based
Text: Table S3. Minimal inhibitory concentrations of P-4423632 against Mycobacterium tuberculosis H37Rv in cell lines and in broth, and inhibitory concentrations (toxicity level) to THP-1 cells. Related to Figure 2.

[4] = tested on: Mycobacterium tuberculosis H37Rv in hMDM; assay: microbe, parasite or virus in culture; assay type: cell-based
[5] = Cytotoxicity analysis (MTT assay); assay type: cell-based; details: human, differentiated THP-1 cells, toxicity level to THP-1 cells
Method: The MTT assay was performed as described previously.[19] […] At the 69.5-hour time point, 25 μL of 3-(4,5-dimethylthiazol-2-yl)-2,5-diphenyltetrazolium bromide (MTT) solution were added to each well. […] The absorbance of each well was read at 570 nm and these values were used to calculate the percentage of viable cells.

Acinetobacter baumannii = assay: Disk assay, in vitro activity; assay type: cell-based
Bacillus subtilis = assay: Disk assay, in vitro activity; assay type: cell-based
Escherichia coli = assay: Disk assay, in vitro activity; assay type: cell-based
Enterococcus faecalis = assay: Disk assay, in vitro activity; assay type: cell-based; details: up to 25 μg of P-4423632
Moraxella catarrhalis = assay: Disk assay, in vitro activity; assay type: cell-based
Pseudomonas aeruginosa = assay: Disk assay, in vitro activity; assay type: cell-based
Staphylococcus aureus = assay: Disk assay, in vitro activity; assay type: cell-based
MRSA = assay: Disk assay, in vitro activity; assay type: cell-based; details: up to 25 μg of P-4423632
[6] = tested on: Staphylococcus epidermidis; assay: Disk assay, in vitro activity; assay type: cell-based
Salmonella typhimurium = assay: Disk assay, in vitro activity; assay type: cell-based
Mycobacterium marinum = assay: Disk assay, in vitro activity; assay type: cell-based; details: up to 25 μg of P-4423632
[7] = tested on: Mycobacterium intracellulare; assay: Disk assay, in vitro activity; assay type: cell-based
Mycobacterium bovis BCG = assay type: cell-based
Mycobacterium smegmatis = assay type: cell-based; details: up to 100 μg of P-4423632
Mycobacterium abscessus = assay type: cell-based; details: up to 100 μg of P-4423632
[8] = tested on: Mycobacterium tuberculosis H37Rv auxotroph, mc2 6206; assay type: cell-based
M. avium avium = assay: Disk assay, in vitro activity; assay type: cell-based
[9] = tested on: panel of bacteria, including Mtb; assay type: cell-based
[10] = tested on: intracellular Mtb in GSK3α KO / GSK3β KO THP-1 cells; assay type: cell-based, Mycobacterium tuberculosis; details: 10 μM P-4423632, 72 h
THP-1 cells = assay: Annexin V FITC apoptosis assay, flow cytometry; assay type: cell-based, human
[11] = tested on: Campylobacter jejuni in Caco-2 cells; assay: Caco-2 infection with C. jejuni, CFU; assay type: cell-based; details: two-fold serial dilutions, 24h
Method: Isolated colonies from overnight culture grown on Muller -Hinton (MH) plates in microaerophilic conditions were inoculated into liquid MH media and grown overnight. Bacteria were pelleted by centrifugation and resuspended in DMEM media. The bacteria were then added at an MOI of 100-400 to Caco-2 cells in 24-well plates at 10^5 cells per well. After 2 h of incubation, infected cells were washed with fresh DMEM and incubated an additional 2 h with 100-200 μg/ml gentamycin followed by the addition of test compounds and incubation for 24 h. After incubation, cells were washed with fresh DMEM and lysed by osmotic shock with sterile […] and passed through a 27G needle with a syringe. The lysate was serially diluted and plated in MH agar using the pouring plate method. CFU were then counted after a 24 - 48 h incubation. To assess cell survival, a duplicate of the previous conditions was used to undergo MTT assay or cell count with the CX5 using DAPI staining. […]
intracellular bacteria. Related to Star Methods describing C. Jejuni and S. enterica infections. […] Percent inhibition was calculated by subtracting CFU values as a percentage of the untreated DMSO control (plotted at 0.1 µM) from 100%. […] Curve was fit using non-linear regression analysis of log (inhibitor) vs. response (variable slope) calculated with GraphPad Prism 10. […]

[12] = tested on: Salmonella enterica serovar Typhimurium in THP-1 cells; assay: THP-1 infection with S. typhimurium, high content screening; assay type: cell-based; details: MOI 10:1, 24h
[13] = tested on: GSK3α Y279 / GSK3β Y216 phosphorylation; assay: Western blot of Y279 - Y216 phosphorylation status of GSK3α and GSK3β in THP-1 cells; assay type: cell-based, human
[14] = tested on: intracellular Mtb H37Rv in THP-1 cells; assay: Dose dependent activity against intracellular Mtb, high content analysis of fluorescent Mtb (Fig 3E); assay type: cell-based, Mycobacterium tuberculosis
[15] = tested on: Mycobacterium tuberculosis H37Rv in broth; assay: In-broth activity analysis (resazurin assay)
Mtb infection = tested on: Mtb infection; design: method as in PMID 35095838; details: GSK3α/β inhibition ref 56; cited from earlier work

With `CSc1ccc(-n2cnc3ccc(-c4nnc(CCc5cccc(C#N)c5)o4)cc32)cc1` [P-0717632] the MIC50 [1] was 0.4 µM (≈ 0.175 µg/mL), the “MIC25 ΔptpA” value [2] was greater than 25 µM and the “MIC50 ΔptpA” value [2] was greater than 25 µM.

For `CSc1ccc(-n2cnc3ccc(-c4nnc(CCc5cccc(C(F)(F)F)c5)o4)cc32)cc1` [P-3817632], the IC50 (GSK3β) was 0.28 µM, the MIC25 [1] was 0.6 µM (≈ 0.288 µg/mL) and the MIC50 [1] was 2 µM (≈ 0.961 µg/mL). For the same molecule, the “MIC25 ΔptpA” value [2] was 13.8 µM (≈ 6.63 µg/mL) and the “MIC50 ΔptpA” value [2] was greater than 25 µM.

Work on `O=C(NCc1ccccn1)Nc1cc(N2CC(CCc3ccccc3)CC2=O)ccn1` (stereo not shown) [P-4423632] yielded an IC50 (GSK3β) of 0.748 µM, an MIC25 [1] of 2.9 µM (≈ 1.2 µg/mL) and an MIC50 [1] of 6.4 µM (≈ 2.66 µg/mL). The “MIC25 ΔptpA” value [2] was greater than 25 µM, the “MIC50 ΔptpA” value [2] was greater than 25 µM and the IC50 ([3]; H37RV, THP-1, read-out: (M)IC50) was 2.31e-06 M. For the same molecule, the IC90 ([3]; Mtb H37Rv in THP-1) was 16 µM, the IC50 ([4]; Mycobacterium tuberculosis, Macrophage, Mtb H37Rv in hMDM) was 4.17 µM and the “effect on Mtb intracellular replication in hMDMs” value ([4]; hMDMs combined from two donors, 72 h) was “restricted Mtb intracellular replication in a dose dependent manner”. The IC50 at 72 h ([5]; read-out: (M)IC50, cytotoxicity in THP1) was 7.78e-05 M, the IC90 at 72 h ([5]; read-out: (M)IC90, cytotoxicity in THP1) was 0.000115 M and the Disk assay susceptibility (Acinetobacter baumannii; up to 25 μg of P-4423632) was “R”. For the same molecule, the Disk assay susceptibility (Bacillus subtilis; up to 25 μg of P-4423632) was “R”, the Disk assay susceptibility (Escherichia coli; up to 25 μg of P-4423632) was “R” and the Disk assay susceptibility (Enterococcus faecalis) was “R”. The Disk assay susceptibility (Moraxella catarrhalis; up to 25 μg of P-4423632) was “R”, the Disk assay susceptibility (Pseudomonas aeruginosa; up to 25 μg of P-4423632) was “R” and the Disk assay susceptibility (Staphylococcus aureus; up to 25 μg of P-4423632) was “R”. The Disk assay susceptibility (MRSA) was “R”, the Disk assay susceptibility ([6]; up to 25 μg of P-4423632) was “R” and the Disk assay susceptibility (Salmonella typhimurium; up to 25 μg of P-4423632) was “R”. The Disk assay susceptibility (Mycobacterium marinum) was “R”, the Disk assay susceptibility ([7]; up to 25 μg of P-4423632) was “R” and the Disk assay susceptibility (Mycobacterium bovis BCG; up to 25 μg of P-4423632) was “R”. For the same molecule, the Disk assay susceptibility (Mycobacterium smegmatis) was “R”, the Disk assay susceptibility (Mycobacterium abscessus) was “R” and the Disk assay susceptibility [8] was “R”. The Disk assay susceptibility (M. avium avium; up to 25 μg of P-4423632) was “R”, the “activity in disk-diffusion antibiotics susceptibility assay” value [9] was “inactive” and the “Reduction % of intracellular Mtb survival vs untreated counterpart” value ([10]; GSK3α KO THP-1 cells) was “over 75%”. The “Reduction % of intracellular Mtb survival vs untreated counterpart” value ([10]; GSK3β KO THP-1 cells) was roughly 50%, the Apoptotic cells (THP-1 cells) was 16.31% and 30.57% and 31.59% and the Dead cells (THP-1 cells) was 9.32% and 6.98%. The Live cells (THP-1 cells) was 67.62% and 58.79% and 58.44%, the “effect on apoptosis of infected THP-1 cells” value (THP-1 cells) was “upregulation of apoptosis” and the “activity against intracellular C. jejuni” value [11] was “active in a dose-dependent manner”. The “activity against intracellular S. Typhimurium” value [12] was “active in a dose-dependent manner”, the “phosphorylation of GSK3α Y279 and GSK3β Y216” value [13] was “reduced phosphorylation of both Y279 and Y216” and the “dose-dependent activity against intracellular Mtb” value [14] was “dose-dependent activity”. For the same molecule, the “effect on host cell viability” value (hMDM) was “no effect on host cell viability”, the “in-broth MIC50 compared to intracellular activity” value ([15]; in broth vs intracellular) was “over 10 fold” and the IC50 ([15]; read-out: (M)IC50, Mtb H37Rv in broth) was 3.88e-05 M. It also gave an IC90 ([15]; read-out: (M)IC90, Mtb H37Rv in broth) of 4.33e-05 M.

In the case of `Cc1nnc(-c2ccc3occ(-c4ccc([S+](C)[O-])c(OC(F)(F)F)c4)c3c2)o1` (stereo not shown) [P-5782442], the MIC25 [1] is reported as 1.6 µM (≈ 0.676 µg/mL), the MIC50 [1] is reported as greater than 25 µM and the “MIC25 ΔptpA” value [2] is reported as greater than 25 µM. For the same molecule, the “MIC50 ΔptpA” value [2] was greater than 25 µM.

In the case of `Cn1cc(C2=C(c3ccc(Cl)cc3Cl)C(=O)NC2=O)c2ccccc21` [SB216763], the “effect on Mtb infection” value (Mtb infection) is listed as “increased Mtb infection”.

In the case of Gentamycin [reference compound], the “Control (mm), disk assay clearing” value (Acinetobacter baumannii; Gen 10 μg) is reported as 20 mm, the “Control (mm), disk assay clearing” value (Bacillus subtilis; Gen 10 μg) is reported as 24 mm and the “Control (mm), disk assay clearing” value (Escherichia coli; Gen 10 μg) is reported as 18 mm. The “Control (mm), disk assay clearing” value (Moraxella catarrhalis; Gen 10 μg) was 30 mm, the “Control (mm), disk assay clearing” value (Pseudomonas aeruginosa; Gen 10 μg) was 21 mm and the “Control (mm), disk assay clearing” value (Staphylococcus aureus; Gen 10 μg) was 25 mm. For the same molecule, the “Control (mm), disk assay clearing” value ([6]; Gen 10 μg) was 26 mm, the “Control (mm), disk assay clearing” value (Salmonella typhimurium; Gen 10 μg) was 20 mm and the “Control (mm), disk assay clearing” value ([7]; Gen 12.5 μg) was 20 mm. For the same molecule, the “Control (mm), disk assay clearing” value (Mycobacterium bovis BCG; Gen 10 μg) was 30 mm and the “Control (mm), disk assay clearing” value (M. avium avium; Gen 12.5 μg) was 21 mm.
